Data published in patent US7553966B2, “Glucocorticoid mimetics, methods of making them, pharmaceutical compositions, and uses thereof” (Boehringer Ingelheim Pharmaceuticals, Inc., priority 2002, dated 2009).

Assays:
[1] = biological target: T1, human glucocorticoid receptor (GR) complex (Homo sapiens, UniProt P04150); experiment: Glucocorticoid Receptor Competitive Binding Assay (fluorescence polarization, TAMRA-labeled dexamethasone probe); conditions: qualitative statement; competition with TAMRA-labeled dexamethasone
T1 construct: made in house; host or cells: insect expression system (baculovirus lysate)
T1 sequence (P04150 1-777): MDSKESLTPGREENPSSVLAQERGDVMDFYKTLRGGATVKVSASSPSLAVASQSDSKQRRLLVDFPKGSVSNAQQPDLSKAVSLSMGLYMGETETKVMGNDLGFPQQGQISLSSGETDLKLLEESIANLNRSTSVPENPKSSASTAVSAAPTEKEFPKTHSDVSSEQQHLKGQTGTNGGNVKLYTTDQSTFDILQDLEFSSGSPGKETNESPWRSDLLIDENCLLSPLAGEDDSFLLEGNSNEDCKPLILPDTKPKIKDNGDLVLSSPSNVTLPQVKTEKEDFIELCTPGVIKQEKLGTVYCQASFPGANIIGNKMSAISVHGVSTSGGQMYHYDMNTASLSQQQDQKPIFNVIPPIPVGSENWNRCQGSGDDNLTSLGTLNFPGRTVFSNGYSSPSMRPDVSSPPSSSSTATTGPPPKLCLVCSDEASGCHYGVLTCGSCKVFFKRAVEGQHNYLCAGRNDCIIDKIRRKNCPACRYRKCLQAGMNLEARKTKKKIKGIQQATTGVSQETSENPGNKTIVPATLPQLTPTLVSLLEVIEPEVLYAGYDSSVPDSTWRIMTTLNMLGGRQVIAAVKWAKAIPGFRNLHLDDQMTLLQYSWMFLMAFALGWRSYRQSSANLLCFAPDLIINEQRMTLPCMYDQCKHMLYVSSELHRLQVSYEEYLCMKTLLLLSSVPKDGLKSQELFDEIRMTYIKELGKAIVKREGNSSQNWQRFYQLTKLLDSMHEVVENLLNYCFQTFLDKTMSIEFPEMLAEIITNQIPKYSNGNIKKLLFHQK
Method in brief: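 Competition with TAMRA-dexamethasone for a human GR complex expressed in insect cells, read by fluorescence polarization. Buffer was 10 mM TES, 50 mM KCl, 20 mM Na2MoO4, 1.5 mM EDTA, 0.04% CHAPS, 10% glycerol, 1 mM DTT, pH 7.4.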

[2] = test system: glucocorticoid receptor; experiment: Glucocorticoid Receptor Cell Assays (agonist activity in one or more of the above assays); format: cell-based; conditions: qualitative statement; assay not specified
Protocol: B. Glucocorticoid Receptor Cell Assays
1. Induction of Aromatase in Fibroblasts (Cell Assay for Transactivation)
Dexamethasone, a synthetic ligand to the glucocorticoid receptor (GR), induces expression of aromatase in human foreskin fibroblast cells. The activity of aromatase is measured by the conversion of testosterone to estradiol in culture media.
On the day of the experiment, the media in the wells is replaced with fresh media. Cells are treated with test compounds to final concentrations of 10^−5 M to 10^−8 M, and testosterone to a final concentration of 300 ng/mL. Each well has a total volume of 100 μL. Samples are made in duplicates. Control wells include: (a) wells that receive testosterone only, and (b) wells that receive testosterone plus 2 μM of dexamethasone to provide maximum induction of aromatase. Plates are incubated at 37° C. overnight (15 to 18 hours), and supernatants are harvested at the end of incubation. […] The amount of estradiol is inversely proportional to the ELISA signals in each well. The extent of aromatase induction by test compounds is expressed as a relative percentage to dexamethasone. EC50 values of test compounds are derived by non-linear curve fitting.
2. Inhibition of IL-6 Production in Fibroblasts (Cell Assay for Transrepression)
Human foreskin fibroblast cells produce IL-6 in response to stimulation by pro-inflammatory cytokine IL-1.
On the next day, media in the wells is replaced with fresh media. Cells are treated with IL-1 (rhIL-1α, R&D Systems Cat. No. 200-LA) to a final concentration of 1 ng/mL, and with test compounds to final concentrations of 10^−5 M to 10^−8 M, in a total volume of 200 μL per well. Samples are done in duplicates. […] Positive control wells receive IL-1 only and represent maximum (or 100%) amount of IL-6 production. Plates are incubated at 37° C. overnight (15 to 18 hours), and supernatants are harvested at the end of incubation. IL-6 levels in the supernatants are determined by the ELISA kits for IL-6 (MedSystems Diagnostics GmbH, Vienna, Austria, Cat. No. BMS213TEN) according to manufacture's instructions. The extent of inhibition of IL-6 by test compounds is expressed in percentage relative to positive controls. IC50 values of test compounds are derived by non-linear curve fitting.
Evaluation of agonist or antagonist activity of compounds binding to the glucocorticoid receptor may be determined by any of the assays.
3. Modulation of Tyrosine Aminotransferase (TAT) Induction in Rat Hepatoma Cells
Testing of compounds for agonist or antagonist activity in induction of tyrosine aminotransferase (TAT) in rat hepatoma cells.
H4-II-E-C3 cells were incubated overnight in 96 well plates (20,000 cells/100 μL/well) in MEM medium containing 10% heat inactivated FBS and 1% nonessential amino acids. On the next day, cells were stimulated with the indicated concentrations of dexamethasone or test compound (dissolved in DMSO, final DMSO concentration 0.2%) for 18 hours. Control cells were treated with 0.2% DMSO. After 18 hours, the cells were lysed in a buffer containing 0.1% Triton X-100 and the TAT activity was measured in a photometric assay using tyrosine and alpha-ketoglutarate as substrates.
For measuring antagonist activity, the hepatoma cells were pre-stimulated by addition of dexamethasone (concentration ranges from 3×10^−9 M to 3×10^−8 M) shortly before the test compound was applied to the cells.
4. Modulation of MMTV-Luc Induction in HeLa Cells
Testing of compounds for agonist or antagonist activity in stimulation of MMTV-(mouse mammary tumor virus) promoter in HeLa cells.
Cells were cultured overnight in DMEM medium without phenol red, supplemented with 3% CCS (charcoal treated calf serum) and then transferred to 96 well plates (15,000 cells/100 μL/well).

Compound | activity in the GR binding assay [1] | activity as agonists of the glucocorticoid receptor function in one or more of the above assays [2]
Cc1cccc2[nH]c(CC(O)(CC(C)(C)c3ccc(F)cc3)C(F)(F)F)cc12 (stereo not shown) [1,1,1-Trifluoro-4-(4-fluorophenyl)-4-methyl-2-(4-methyl-1H-indol-2-ylmethyl)pentan-2-ol] | potent activity | potent agonists
CC(C)(CC(O)(Cc1cc2cc(C#N)ccc2[nH]1)C(F)(F)F)c1ccccc1 (stereo not shown) [2-(2-Hydroxy-4-methyl-4-phenyl-2-trifluoromethylpentyl)-1H-indole-5-carbonitrile] | potent activity | potent agonists
CC(C)(CC(O)(Cc1cc2ccncc2[nH]1)C(F)(F)F)c1cccc2c1OCC2 (stereo not shown) [4-(2,3-Dihydrobenzofuran-7-yl)-1,1,1-trifluoro-4-methyl-2-(1H-pyrrolo[2,3-c]pyridin-2-ylmethyl)pentan-2-ol] | potent activity | potent agonists
COc1cc(F)ccc1C(C)(C)CC(O)(Cc1cc2ccncc2[nH]1)C(F)(F)F (stereo not shown) [1,1,1-Trifluoro-4-(4-fluoro-2-methoxyphenyl)-4-methyl-2-(1H-pyrrolo[2,3-c]pyridin-2-ylmethyl)pentan-2-ol] | potent activity | potent agonists
COc1ccc(F)cc1C(C)(C)CC(O)(Cc1cc(Cl)nc(Cl)c1)C(F)(F)F (stereo not shown) [2-(2,6-Dichloropyridin-4-ylmethyl)-1,1,1-trifluoro-4-(5-fluoro-2-methoxyphenyl)-4-methylpentan-2-ol] | potent activity | potent agonists
COc1ccc(F)cc1C(C)(C)CC(O)(Cc1cc2ccncc2[nH]1)C(F)(F)F (stereo not shown) [1,1,1-Trifluoro-4-(5-fluoro-2-methoxyphenyl)-4-methyl-2-(1H-pyrrolo[2,3-c]pyridin-2-ylmethyl)pentan-2-ol] | potent activity | potent agonists
COc1ccc(F)cc1C(C)(C)CC(O)(Cc1cc2cnccc2[nH]1)C(F)(F)F (stereo not shown) [1,1,1-Trifluoro-4-(5-fluoro-2-methoxyphenyl)-4-methyl-2-(1H-pyrrolo[3,2-c]pyridin-2-ylmethyl)pentan-2-ol] | potent activity | potent agonists
CC(C)(CC(O)(Cc1cc2cnccc2[nH]1)C(F)(F)F)c1cccc2c1OCC2 (stereo not shown) [4-(2,3-Dihydrobenzofuran-7-yl)-1,1,1-trifluoro-4-methyl-2-(1H-pyrrolo[3,2-c]pyridin-2-ylmethyl)pentan-2-ol] | potent activity | potent agonists
Cc1cc(C#N)cc2[nH]c(CC(O)(CC(C)(C)c3cccc(F)c3)C(F)(F)F)cc12 (stereo not shown) [2-[4-(3-Fluorophenyl)-2-hydroxy-4-methyl-2-trifluoromethylpentyl]-4-methyl-1H-indole-6-carbonitrile] | potent activity | potent agonists
Cc1ccc(F)cc1C(C)(C)CC(O)(Cc1cc2c(C)cc(C#N)cc2[nH]1)C(F)(F)F (stereo not shown) [2-[4-(5-Fluoro-2-methylphenyl)-2-hydroxy-4-methyl-2-trifluoromethylpentyl]-4-methyl-1H-indole-6-carbonitrile] | potent activity | potent agonists
CC(C)(CC(O)(Cc1cc2ccncc2[nH]1)C(F)(F)F)c1ccccc1 (stereo not shown) [1,1,1-Trifluoro-4-methyl-4-phenyl-2-(1H-pyrrolo[2,3-c]pyridin-2-ylmethyl)pentan-2-ol] | potent activity | potent agonists
CC(C)(CC(O)(Cc1ccnc2cccc(F)c12)C(F)(F)F)c1ccc(F)cc1 (stereo not shown) [1,1,1-Trifluoro-4-(4-fluorophenyl)-2-(5-fluoroquinolin-4-ylmethyl)-4-methylpentan-2-ol] | potent activity | potent agonists
COc1ccc(F)cc1C(C)(C)CC(O)(Cc1[nH]c2ccccc2c1C#N)C(F)(F)F (stereo not shown) [2-[4-(5-Fluoro-2-methoxyphenyl)-2-hydroxy-4-methyl-2-trifluoromethylpentyl]-1H-indole-3-carbonitrile] | potent activity | potent agonists
COc1ccc(F)cc1C(C)(C)CC(O)(Cc1cc2ccccc2[nH]1)C(F)(F)F (stereo not shown) [1,1,1-Trifluoro-4-(5-fluoro-2-methoxyphenyl)-2-(1H-indol-2-ylmethyl)-4-methylpentan-2-ol] | potent activity | potent agonists
Cc1cccc2[nH]c(CC(O)(CC(C)(C)c3cc(F)ccc3O)C(F)(F)F)cc12 (stereo not shown) [4-Fluoro-2-[4,4,4-trifluoro-3-hydroxy-1,1-dimethyl-3-(4-methyl-1H-indol-2-ylmethyl)butyl]phenol] | potent activity | potent agonists
CC(C)(CC(O)(Cc1[nH]c2ccccc2c1C#N)C(F)(F)F)c1cc(Br)cc2c1OCC2 (stereo not shown) [2-[4-(5-Bromo-2,3-dihydrobenzofuran-7-yl)-2-hydroxy-4-methyl-2-trifluoromethylpentyl]-1H-indole-3-carbonitrile] | potent activity | potent agonists
COc1cc(F)ccc1C(C)(C)CC(O)(Cc1ccnc2ccccc12)C(F)(F)F (stereo not shown) [1,1,1-Trifluoro-4-(4-fluoro-2-methoxyphenyl)-4-methyl-2-quinolin-4-ylmethylpentan-2-ol] | potent activity | potent agonists
